≈ marks a conversion by molar mass, not a printed value.
Legend:
[1] = Compound was evaluated for the solubility at the pH 7.4; type: ADME; conditions: buffer
[2] = target: T1, Human immunodeficiency virus type 1 protease (Human immunodeficiency virus 1, UniProt Q72874)
Description: Compound was evaluated for the inhibitory activity against HIV-1 protease

[3] = target: T1, Human immunodeficiency virus type 1 protease; remark: listed apart in the source
Description: Effective concentration of compound for inhibition of HIV 1 protease was determined

[4] = target: T1, Human immunodeficiency virus type 1 protease; remark: listed apart in the source
Description: Inhibition of HIV-1 protease

[5] = target: Carbonic anhydrase 2 (Homo sapiens, UniProt P00918)
Description: Compound was evaluated for the inhibitory constant towards Human Carbonic anhydrase II (HCA II)

[6] = target: Thymidylate synthase (Homo sapiens, UniProt P04818)
Chain of Thymidylate synthase (P04818 whole entry): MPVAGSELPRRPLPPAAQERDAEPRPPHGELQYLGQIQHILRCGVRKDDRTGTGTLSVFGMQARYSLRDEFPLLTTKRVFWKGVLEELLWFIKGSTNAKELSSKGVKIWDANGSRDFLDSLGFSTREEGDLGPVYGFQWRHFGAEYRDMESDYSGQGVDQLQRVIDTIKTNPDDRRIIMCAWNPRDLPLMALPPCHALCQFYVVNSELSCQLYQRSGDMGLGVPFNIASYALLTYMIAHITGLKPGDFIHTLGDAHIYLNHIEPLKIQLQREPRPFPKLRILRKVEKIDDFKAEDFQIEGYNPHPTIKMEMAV
Description: Compound was evaluated for the inhibitory constant of human thymidylate synthase

[7] = target: Human immunodeficiency virus type 1 protease (Human immunodeficiency virus 1) (UniProt Q72874)
Description: Compound was evaluated for the thymidine reversal of HIV-1 protease

[8] = tested on: L1210; assay: cells; conditions: Mus musculus
Description: Compound was evaluated for the inhibitory activity of L1210 cells

Structure (SMILES): CC(C)[C@H](NC(=O)OCc1ccccn1)C(=O)N[C@@H](Cc1ccccc1)[C@H](O)[C@H](O)[C@H](Cc1ccccc1)NC(=O)[C@@H](NC(=O)OCc1ccccn1)C(C)C
- solubility [1]: 3.1 µM (≈ 2.38 µg/mL)
- Ki [2]: 0.09 nM
- EC50 [3]: 20 nM

Structure (SMILES): CC(C)(C)OC(=O)N[C@@H](Cc1ccccc1)C(O)[C@H](Cc1ccccc1)NC(=O)OC(C)(C)C
- IC50 [4]: 3000 nM

Structure (SMILES): CC(=O)N[C@@H](Cc1ccccc1)C(O)[C@H](Cc1ccccc1)NC(C)=O
- IC50 [4]: > 10000 nM

Structure (SMILES): N[C@@H](Cc1ccccc1)C(O)[C@@H](N)Cc1ccccc1
- IC50 [4]: > 10000 nM

Structure (SMILES): CC(C)[C@H](NC(=O)N(C)Cc1ccccn1)C(=O)N[C@@H](Cc1ccccc1)[C@H](O)[C@H](O)[C@H](Cc1ccccc1)NC(=O)[C@@H](NC(=O)N(C)Cc1ccccn1)C(C)C [A-77003]
- solubility [1]: 256 µM (≈ 204 µg/mL)
- Ki [5]: 140 nM
- Ki [2]: 0.15 nM
- EC50 [3]: 70 nM

Structure (SMILES): CN(Cc1ccc(S(=O)(=O)N2CCOCC2)cc1)c1ccc2c3c(cccc13)C(N)=N2
- Ki [6]: 2 nM

Structure (SMILES): CNC1=Nc2ccc(N(C)Cc3ccc(S(=O)(=O)N4CCOCC4)cc3)c3c(C)ccc1c23
- Ki [6]: 2 nM
- Thymidine reversal [7]: 12.7
- IC50 [8]: 150 nM

Structure (SMILES): CC(C)[C@H](N)C(=O)N[C@@H](Cc1ccccc1)C(O)[C@H](Cc1ccccc1)NC(=O)[C@@H](N)C(C)C
- IC50 [4]: 590 nM

Structure (SMILES): CC(C)[C@H](NC(=O)N(C)Cc1ccccn1)C(=O)N[C@@H](Cc1ccccc1)[C@H](O)[C@@H](O)[C@H](Cc1ccccc1)NC(=O)[C@@H](NC(=O)N(C)Cc1ccccn1)C(C)C [A-76928]
- solubility [1]: 292 µM (≈ 232 µg/mL)
- Ki [2]: 1.66 nM
- EC50 [3]: 280 nM

Structure (SMILES): CC(C)[C@H](NC(=O)N(C)Cc1ccccn1)C(=O)N[C@@H](Cc1ccccc1)CC(O)[C@H](Cc1ccccc1)NC(=O)[C@@H](NC(=O)N(C)Cc1ccccn1)C(C)C (single isomer, unassigned)
- Ki [5]: 17 nM

Structure (SMILES): CCN(Cc1ccc(S(=O)(=O)N2CCNCC2)cc1)c1ccc2c3c(cccc13)C(=O)N2
- Thymidine reversal [7]: 1.1

Structure (SMILES): CC(C)(C)OC(=O)N[C@@H](Cc1ccccc1)[C@@H](O)[C@H](O)[C@H](Cc1ccccc1)NC(=O)OC(C)(C)C
- IC50 [4]: 280 nM

Structure (SMILES): CN(Cc1ccc(S(=O)(=O)N2CCOCC2)cc1)c1ccc2c3c(cccc13)C(=N)N2
- Thymidine reversal [7]: 8.5
- IC50 [8]: 300 nM

Structure (SMILES): CC(C)[C@H](NC(=O)OCc1ccccc1)C(=O)N[C@@H](Cc1ccccc1)C(O)C(O)[C@H](Cc1ccccc1)NC(=O)[C@@H](NC(=O)OCc1ccccc1)C(C)C (single isomer, unassigned; 11)
- IC50 [4]: 0.22 nM

Structure (SMILES): CC(C)[C@H](NC(=O)OCc1ccccc1)C(=O)N[C@@H](Cc1ccccc1)C(O)C(O)[C@H](Cc1ccccc1)NC(=O)[C@@H](NC(=O)OCc1ccccc1)C(C)C (single isomer, unassigned; 13)
- IC50 [4]: 0.38 nM

Structure (SMILES): CC(C)[C@H](NC(=O)N(C)Cc1ccccn1)C(=O)N[C@@H](Cc1ccccc1)[C@@H](O)[C@H](O)[C@H](Cc1ccccc1)NC(=O)[C@@H](NC(=O)N(C)Cc1ccccn1)C(C)C
- solubility [1]: 4.7 µM (≈ 3.74 µg/mL)
- Ki [2]: 0.18 nM
- EC50 [3]: 60 nM

Structure (SMILES): CC(C)[C@H](NC(=O)OCc1ccccc1)C(=O)N[C@@H](Cc1ccccc1)[C@H](O)[C@H](O)[C@H](Cc1ccccc1)NC(=O)[C@@H](NC(=O)OCc1ccccc1)C(C)C
- IC50 [4]: 0.22 nM

Structure (SMILES): CC(C)[C@H](NC(=O)OCc1ccccn1)C(=O)N[C@@H](Cc1ccccc1)[C@@H](O)[C@H](O)[C@H](Cc1ccccc1)NC(=O)[C@@H](NC(=O)OCc1ccccn1)C(C)C
- solubility [1]: 0.27 µM (≈ 0.208 µg/mL)
- Ki [2]: 0.19 nM
- EC50 [3]: 50 nM

Structure (SMILES): CC(=O)N[C@H](C(=O)N[C@H](C(=O)N[C@@H](Cc1ccccc1)C(O)[C@H](Cc1ccccc1)NC(=O)[C@@H](NC(=O)[C@@H](NC(C)=O)C(C)C)C(C)C)C(C)C)C(C)C
- IC50 [4]: 10 nM

Structure (SMILES): CC(C)[C@H](NC(=O)OCc1ccccn1)C(=O)N[C@@H](Cc1ccccc1)[C@H](O)[C@@H](O)[C@H](Cc1ccccc1)NC(=O)[C@@H](NC(=O)OCc1ccccn1)C(C)C
- Ki [2]: 0.16 nM
- EC50 [3]: 120 nM

Structure (SMILES): CC(C)(C)OC(=O)N[C@@H](Cc1ccccc1)[C@H](O)[C@@H](O)[C@H](Cc1ccccc1)NC(=O)OC(C)(C)C
- IC50 [4]: 40 nM

Structure (SMILES): CN(Cc1ccc(S(=O)(=O)c2ccccc2)cc1)c1ccc2c3c(cccc13)C(N)=N2
- Thymidine reversal [7]: 2.3
